Measured values: ChEMBL document CHEMBL5042519, “Design and synthesis of marine sesterterpene analogues as novel estrogen receptor α degraders for breast cancer treatment” (Eur J Med Chem, 2022)
Active and inactive are the calls of the source. No cut-off for these calls is given here.

Experiments:
[1] = Selectivity index, ratio of IC50 for antiproliferative activity against human MCF-10A cells to IC50 for antiproliferative activity against human MDA-MB-231 cells by MTT assay; type: toxicity, cell-based; details: MCF-10A cells versus MDA-MB-231 cells, read-out: Ratio IC50
[2] = system: MCF7; test: Cell cycle arrest in human MCF7 cells assessed as accumulation at G1 phase at 1 uM measured after 24 hrs by propidium iodide staining based flow cytometry (reference value: 73.45 %); type: functional
[3] = system: MCF7; test: Induction of apoptosis in human MCF7 cells assessed as increase in cleaved caspase 3 level at 0.5 to 3 uM and measured after 24 hrs Western blot analysis relative to control; type: functional, cell-based; details: dose 0.5-3 µM
[4] = system: MCF7; test: Cell cycle arrest in human MCF7 cells assessed as reduction in cyclin D1 expression at 0.5 to 3 uM and measured after 24 hrs by Western blot analysis; type: functional, cell-based; details: dose 0.5-3 µM
[5] = system: MCF7; test: Induction of ROS generation in human MCF7 cells assessed as increase in intracellular ROS level at 2 uM measured after 24 hrs by DCFH-DA staining based flow cytometry method (reference value: 19.02%); type: functional
[6] = target: T1, Estrogen receptor (Homo sapiens) (UniProt P03372); test: Induction of ERalpha degradation in human MCF7 cells assessed as ERalpha level at 3 uM measured after 24 hrs in presence of HyT by Western blot analysis; type: cell-based
T1 sequence (whole entry): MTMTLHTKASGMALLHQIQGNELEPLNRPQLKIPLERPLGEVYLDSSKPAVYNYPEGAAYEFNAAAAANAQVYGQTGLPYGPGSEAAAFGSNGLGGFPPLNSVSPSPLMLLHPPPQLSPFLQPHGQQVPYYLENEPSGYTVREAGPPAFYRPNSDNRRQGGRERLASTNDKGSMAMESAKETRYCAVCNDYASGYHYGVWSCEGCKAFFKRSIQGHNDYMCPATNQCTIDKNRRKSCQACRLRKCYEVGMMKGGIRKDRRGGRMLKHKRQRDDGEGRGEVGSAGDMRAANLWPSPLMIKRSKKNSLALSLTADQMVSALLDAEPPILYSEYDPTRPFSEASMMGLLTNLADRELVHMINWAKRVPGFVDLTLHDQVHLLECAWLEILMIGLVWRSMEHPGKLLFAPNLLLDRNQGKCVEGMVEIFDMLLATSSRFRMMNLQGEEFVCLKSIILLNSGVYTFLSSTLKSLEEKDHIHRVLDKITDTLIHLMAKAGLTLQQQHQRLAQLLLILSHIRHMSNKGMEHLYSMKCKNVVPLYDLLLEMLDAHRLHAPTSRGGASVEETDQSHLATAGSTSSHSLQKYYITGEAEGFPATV

[7] = system: MCF7; test: Induction of ROS generation in human MCF7 cells assessed as increase in intracellular ROS level at 0.5 to 2 uM and measured after 24 hrs by DCFH-DA staining based flow cytometry method; type: functional, cell-based; details: dose 0.5-2 µM
[8] = system: MCF7; test: Effect on cell morphology in human MCF7 cells assessed as chromatin shrinkage at 0.5 to 2 uM measured after 24 hrs by Hoechst 33342 staining based fluorescence microscopy; type: functional; details: dose 0.5-2 µM
[9] = Metabolic stability in rat plasma assessed as parent compound remaining incubated for 60 mins in presence of NADPH by UPLC-MS analysis; type: ADME, cell-free; details: read-out: Stability
[10] = target: T1, Estrogen receptor (Homo sapiens); test: Induction of ERalpha degradation in human MCF7 cells assessed as ERalpha level at 3 uM measured after 24 hrs in presence of proteasome inhibitor MG132 by Western blot analysis; type: cell-based
[11] = system: MCF7; test: Inhibition of colony formation in human MCF7 cells at 0.5 to 2 uM measured after 9 days by crystal violet staining based assay; type: functional, cell-based; details: dose 0.5-2 µM, time 9.0 day
[12] = system: MCF7; test: Cell cycle arrest in human MCF7 cells assessed as reduction in CDK4 expression at 0.5 to 3 uM and measured after 24 hrs by Western blot analysis; type: functional, cell-based; details: dose 0.5-3 µM
[13] = system: MCF7; test: Induction of apoptosis in human MCF7 cells assessed as decrease in Bcl2 protein level at 0.5 to 3 uM and measured after 24 hrs Western blot analysis relative to control; type: functional, cell-based; details: dose 0.5-3 µM
[14] = system: MCF7; test: Cell cycle arrest in human MCF7 cells assessed as decrease in G2/M phase accumulation at 0.5 to 2 uM and measured after 24 hrs by propidium iodide staining based flow cytometry relative to control; type: functional; details: dose 0.5-2 µM
[15] = Antiproliferative activity against human MCF-10A cells assessed as reduction in cell viability after 48 hrs by MTT assay; type: toxicity, cell-based
[16] = system: MCF7; test: Effect on cell morphology in human MCF7 cells assessed as appearance of round cells at 0.5 to 2 uM measured after 24 hrs by Hoechst 33342 staining based fluorescence microscopy; type: functional; details: dose 0.5-2 µM
[17] = system: MCF7; test: Inhibition of colony formation in human MCF7 cells at 0.5 uM measured after 9 days by crystal violet staining based assay relative to control; type: functional, cell-based; details: time 9.0 day
[18] = target: T1, Estrogen receptor (Homo sapiens); test: Induction of ERalpha degradation in human MCF7 cells assessed as decrease in ERalpha protein expression at 0.5 to 3 uM for 24 hrs by Western blot analysis; type: cell-based; details: dose 0.5-3 µM
[19] = system: MCF7; test: Effect on cell morphology in human MCF7 cells assessed as appearance of apoptotic bodies at 0.5 to 2 uM measured after 24 hrs by Hoechst 33342 staining based fluorescence microscopy; type: functional; details: dose 0.5-2 µM

CC1=CC(=O)[C@H]2/C(C=O)=C\C[C@H]3[C@@H]([C@@H](C)/C=C\C=C/C(=O)OCCOCCOCCOC(=O)CC45CC6CC(CC(C6)C4)C5)CC[C@]3(C)C[C@H]12
selectivity ratio [1]: 5.34
Activity [2]: 78.07%
Activity [3]: Dose-Dependent Effect
Activity [4]: Dose-Dependent Effect
Activity [5]: 58.14%
Activity [6]: Active
Activity [7]: Dose-Dependent Effect
Activity [8]: Active
remaining at 1 h [9]: 81%
Activity [10]: inactive
inhibition [11]: Active
Activity [12]: Dose-Dependent Effect
Activity [13]: Active
Activity [14]: Active
IC50 at 48 h [15]: 2.19 µM
Activity [16]: Active
inhibition [17]: Active
Activity [18]: Dose-Dependent Effect
Activity [19]: Active
